Key:
Type in all cases: in vivo
Spodoptera littoralis [1] = assay: Spodoptera littoralis (Egyptian cotton leaf worm), sprayed cotton leaf discs; conditions: foliar, 72 h, application rate 200 ppm, L1 larvae, 3 days after infestation, read-out: control (mortality, anti-feeding effect, growth inhibition)
Method in brief: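 Five first-instar larvae placed on dried cotton leaf discs (on agar) previously sprayed with aqueous dilutions of 10'000 ppm DMSO stocks. Scored at 3 days against untreated discs for mortality, feeding inhibition and growth inhibition; any category above untreated counts as control.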

Myzus persicae = Myzus persicae (green peach aphid): feeding/contact activity; conditions: 144 h, application rate 200 ppm, aphid population of mixed ages, 6 days after infestation, read-out: mortality
Method: Sunflower leaf discs were placed onto agar in a 24-well microtiter plate and sprayed with aqueous test solutions prepared from 10'000 ppm DMSO stock solutions. After drying, the leaf discs were infested with an aphid population of mixed ages. The samples were assessed for mortality 6 days after infestation.

Euschistus heros = Euschistus heros (neotropical brown stink bug), sprayed soybean leaves; conditions: 120 h, application rate 200 ppm, N2 nymphs, 5 days after infestation, read-out: effect in at least one of the two categories (mortality or growth inhibition)
Method in brief: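 Scored 5 days post-infestation versus untreated controls, for both mortality and growth inhibition: N2 nymphs placed on agar-mounted soybean leaves previously sprayed at 200 ppm with aqueous test solutions from DMSO stocks and left to dry.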

Thrips tabaci = Thrips tabaci (onion thrips): feeding/contact activity; conditions: 144 h, application rate 200 ppm, Thrips population of mixed ages, 6 days after infestation, read-out: mortality
Method: Sunflower leaf discs were placed on agar in 24-well microtiter plates and sprayed with aqueous test solutions prepared from 10'000 ppm DMSO stock solutions. After drying the leaf discs were infested with a Thrips population of mixed ages. The samples were assessed for mortality 6 days after infestation.

Diabrotica balteata = Diabrotica balteata (corn root worm), sprayed maize sprouts; conditions: 96 h, application rate 200 ppm, L2 larvae, 4 days after infestation, read-out: effect in at least one of the two categories (mortality or growth inhibition)
Method in brief: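 Read-out at 4 days post-infestation: mortality and growth inhibition relative to untreated samples. Test solutions (200 ppm, from DMSO stocks) were sprayed onto agar-held maize sprouts, which after drying received 6–10 L2 larvae per well.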

Spodoptera littoralis [2] = assay: Spodoptera littoralis (Egyptian cotton leaf worm), uptake by lettuce roots from agar; conditions: 144 h, read-out: effect in at least one of the three categories (mortality, anti-feeding, or growth inhibition);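 note: 12.5 ppm test rate in agar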
Method in brief: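 Systemic test: Spodoptera eggs placed on lettuce leaves from seedlings raised 7 days on agar containing the compound (diluted from 10'000 ppm DMSO stock). Six days after infestation, larvae scored against untreated controls for mortality, feeding deterrence and growth inhibition.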

Tetranychus urticae = Tetranychus urticae (two-spotted spider mite): feeding/contact activity; conditions: 192 h, application rate 200 ppm, mixed population (mobile stages), 8 days after infestation, read-out: mortality
Method: Bean leaf discs on agar in 24-well microtiter plates were sprayed with aqueous test solutions prepared from 10'000 ppm DMSO stock solutions. After drying the leaf discs were infested with a mite population of mixed ages. The samples were assessed for mortality on mixed population (mobile stages) 8 days after infestation.

Plutella xylostella = Plutella xylostella (diamond back moth), artificial diet; conditions: 120 h, application rate 200 ppm, L2 larvae, 5 days after infestation, read-out: effect in at least one of the two categories (mortality or growth inhibition)
Method in brief: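 L2 larvae (10-15 per well) fed on compound-treated, dried artificial diet; test solutions diluted in water from 10'000 ppm DMSO stocks. Readout 5 days post-infestation as mortality or growth inhibition versus untreated diet, with at least 80% effect at 200 ppm as threshold.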

Cc1cc(C2=NO[C@@](c3cc(Cl)cc(C(F)(F)F)c3)(C(F)(F)F)C2)ccc1C(=O)N[C@H]1CON(S(C)(=O)=O)C1 [Compound A75]
≥ 80%: mortality at 200 ppm (Spodoptera littoralis [1]) | mortality at 200 ppm (Myzus persicae) | percent effect (mortality or growth inhibition) at 200 ppm (Euschistus heros) | mortality at 200 ppm (Thrips tabaci) | percent effect (mortality or growth inhibition) at 200 ppm (Diabrotica balteata) | percent control (mortality, anti-feedant effect or growth inhibition) at 12.5 ppm (Spodoptera littoralis [2]) | mortality at 200 ppm (Tetranychus urticae) | percent effect (mortality or growth inhibition) at 200 ppm (Plutella xylostella)

CS(=O)(=O)N1CC(NC(=O)c2ccc(C3=NO[C@@](c4cc(Cl)c(F)c(Cl)c4)(C(F)(F)F)C3)cc2Cl)CO1 (stereo partly drawn) [Compound A19, 2-chloro-4-[(5S)-5-(3,5-dichloro-4-fluoro-phenyl)-5-(trifluoromethyl)-4H-isoxazol-3-yl]-N-(2-methylsulfonylisoxazolidin-4-yl)benzamide]
≥ 80%: mortality at 200 ppm (Spodoptera littoralis [1]) | mortality at 200 ppm (Myzus persicae) | percent effect (mortality or growth inhibition) at 200 ppm (Euschistus heros) | mortality at 200 ppm (Thrips tabaci) | percent effect (mortality or growth inhibition) at 200 ppm (Diabrotica balteata) | percent control (mortality, anti-feedant effect or growth inhibition) at 12.5 ppm (Spodoptera littoralis [2]) | mortality at 200 ppm (Tetranychus urticae) | percent effect (mortality or growth inhibition) at 200 ppm (Plutella xylostella)

CN(C)S(=O)(=O)N1C[C@@H](NC(=O)c2ccc(C3=NO[C@@](c4cc(Cl)c(F)c(Cl)c4)(C(F)(F)F)C3)cc2Cl)CO1 [Compound A107]
≥ 80%: mortality at 200 ppm (Spodoptera littoralis [1]) | mortality at 200 ppm (Myzus persicae) | percent effect (mortality or growth inhibition) at 200 ppm (Euschistus heros) | mortality at 200 ppm (Thrips tabaci) | percent effect (mortality or growth inhibition) at 200 ppm (Diabrotica balteata) | percent control (mortality, anti-feedant effect or growth inhibition) at 12.5 ppm (Spodoptera littoralis [2]) | mortality at 200 ppm (Tetranychus urticae) | percent effect (mortality or growth inhibition) at 200 ppm (Plutella xylostella)

CS(=O)(=O)N1C[C@@H](NC(=O)c2ccc(C3=NO[C@@](c4cc(Cl)c(F)c(Cl)c4)(C(F)(F)F)C3)cc2Cl)CO1 [Compound A144, 2-chloro-4-[(5S)-5-(3,5-dichloro-4-fluoro-phenyl)-5-(trifluoromethyl)-4H-isoxazol-3-yl]-N-[(4R)-2-methylsulfonylisoxazolidin-4-yl]benzamide]
≥ 80%: mortality at 200 ppm (Spodoptera littoralis [1]) | mortality at 200 ppm (Myzus persicae) | percent effect (mortality or growth inhibition) at 200 ppm (Euschistus heros) | mortality at 200 ppm (Thrips tabaci) | percent effect (mortality or growth inhibition) at 200 ppm (Diabrotica balteata) | percent control (mortality, anti-feedant effect or growth inhibition) at 12.5 ppm (Spodoptera littoralis [2]) | mortality at 200 ppm (Tetranychus urticae) | percent effect (mortality or growth inhibition) at 200 ppm (Plutella xylostella)

CCN(C)S(=O)(=O)N1C[C@@H](NC(=O)c2ccc(C3=NO[C@@](c4cc(Cl)c(F)c(Cl)c4)(C(F)(F)F)C3)cc2C)CO1 [Compound A140, 4-[(5S)-5-(3,5-dichloro-4-fluoro-phenyl)-5-(trifluoromethyl)-4H-isoxazol-3-yl]-N-[(4R)-2-[ethyl(methyl)sulfamoyl]isoxazolidin-4-yl]-2-methyl-benzamide]
≥ 80%: mortality at 200 ppm (Spodoptera littoralis [1]) | mortality at 200 ppm (Myzus persicae) | percent effect (mortality or growth inhibition) at 200 ppm (Euschistus heros) | mortality at 200 ppm (Thrips tabaci) | percent effect (mortality or growth inhibition) at 200 ppm (Diabrotica balteata) | percent control (mortality, anti-feedant effect or growth inhibition) at 12.5 ppm (Spodoptera littoralis [2]) | mortality at 200 ppm (Tetranychus urticae) | percent effect (mortality or growth inhibition) at 200 ppm (Plutella xylostella)
